Laboratory results taken from patent US20110237436A1, “Hydrate and anhydrous crystal form of the sodium salt of 2-iodo-N-[(4-methoxy-6-methyl-1,3,5-triazin-2-yl)carbamoyl]benzenesulfonamide, process for preparation thereof and use thereof as herbicides and plant growth regulators” (BAYER CROPSCIENCE AG, priority 2010, published 2011).

Key:
[1] = Stability tests: storage of oil dispersions of the active ingredient; format: physicochemical
From the text: The oil dispersions described were produced analogously to DE 19951427.

[2] = Practical testing of suspension formulations; format: physicochemical; settings: effects occur spontaneously or over a longer period
From the text: The compound of the formula (I) known, for example, from WO 2009/053058 (compound I-2 in table 1 therein) has herbicidal properties and is suitable for the production of crop protection compositions which can be employed for weed control. […] User-friendly administration forms are, for example, suspension formulations or solid formulations in which the compound of the formula (I) is present in finely ground, solid form. […] There may, for example, be precipitation, crystal growth or solidification, such that the suspension formulation becomes unusable. These effects can occur spontaneously or over a longer period and cannot be foreseen.

[3] = in the course of production of oil dispersions or storage at room temperature, within hours or a few days
[4] = oil dispersion produced analogously to DE 19951427, storage at different temperatures for several weeks

Structure (SMILES) | change in viscosity of the oil dispersions [1, 3] | precipitation or crystallization of the active ingredient in the oil dispersion [1, 3] | physical stability of suspension formulations [2] | change in the viscosity of the oil dispersions [1, 4] | signs of precipitation or crystallization of the active ingredient in the oil dispersion [1, 4]
COc1nc(C)nc(NC(=O)[N-]S(=O)(=O)c2ccccc2I)n1.[Na+] [amorphous sodium salt, sodium salt of 2-iodo-N-[(4-methoxy-6-methyl-1,3,5-triazin-2-yl)carbamoyl]benzenesulfonamide] | significant rises in viscosity, up to and including complete solidification | precipitation or crystallization of the active ingredient | physically unstable formulations |  | 
COc1nc(C)nc(NC(=O)[N-]S(=O)(=O)c2ccccc2I)n1.[Na+] [hydrate, hydrate of the sodium salt of 2-iodo-N-[(4-methoxy-6-methyl-1,3,5-triazin-2-yl)carbamoyl]benzenesulfonamide] |  |  |  | Nor was any change found in the viscosity | did not exhibit any signs of precipitation or crystallization of the active ingredient
